Structures are written as SMILES. “And” between values parts separate entries of the source, which are not always exact repeats. Equal values may be shown once.

This experiment addresses T1, human recombinant μ (MOP, OPRM1) receptor (Homo sapiens, UniProt P35372).
T1 construct: host or cells: CHO cells
In words: MOP opioid receptor functional agonism in CHO cells expressing human recombinant μ receptors. It counts as cell-based. The settings on record: At 10^−6 M, percent of control specific agonist response, values lower than 25% not significant. The protocol:
Peptides were tested for μ (MOP, OPRM1) and δ (DOP, OPRD2) opioid receptor activation functional agonism and antagonism using CHO cells expressing human recombinant μ receptors and NG-10815 cells which express significant endogenous levels of δ opioid receptors. The cultures were incubated for 10 min at 37°C followed by impedance measurements of CHO cells and cAMP was assayed by the HTRF method using NG-10815 cells, according to CEREP standard assay protocols. The respective reference, non-peptide small molecules were tested concurrently with the TAPS analogs. The agonist compounds were: DPDPE (selective agonist of DOP receptor) and DAMGO (high MOP receptor specificity) and the antagonist compounds were: Naltrindole (selective DOP receptor antagonist) and CTOP (MOP receptor antagonist). […] The results are expressed as a percentage of respective control-specific response. […] These findings indicate that TAPS cyclic peptides are MOP selective full agonists. […] The cyclic TAPS peptide had lower activity than the linear parent TAPS peptide (90 ± 5%) – a finding that can be attributed to their restricted conformation relative to the flexible linear peptide conformation.
Evaluation of the Agonist Activity of Compounds at the Human μ Receptor in Transfected CHO Cells, Determined by Measuring Their Effects on cAMP modulation Using the HTRF Detection Method
Thereafter, the adenylyl cyclase activator NKH 477 is added at a final concentration of […]. Following 10 min incubation at 37°C, the cells are lysed and the fluorescence acceptor (D2-labeled cAMP) and fluorescence donor (anti-cAMP antibody labeled with europium cryptate) are added. After 60 min at room temperature, the fluorescence transfer is measured at lex = 337 nm and lem = 620 and 665 nm using a microplate reader (Rubystar, BMG). The cAMP concentration is determined by dividing the signal measured at 665 nm by that measured at 620 nm (ratio). The results are expressed as a percent of the control response to 1 μM DAMGO. The standard reference agonist is DAMGO, which is tested in each experiment at several concentrations to generate a concentration-response curve from which its EC50 value is calculated.
The respective reference, non-peptide small molecules were tested concurrently with the TAPS analogs; Agonist compounds DPDPE ([D-Pen2,D-Pen5]enkephalin), selective agonist of DOP receptor at 2 × 10^−9 M and DAMGO ([D-Ala2, N-MePhe4, Gly-ol] enkephalin), high MOP specificity at 2.5 × 10^−9 M; Antagonist compounds: naltrindole 7-(cyclopropylmethyl)-6,7-dehydro-4,5α-epoxy-3,14-dihydroxy-6,7-2′,3′-indolomorphinan hydrochloride, selective DOP antagonist, 5 × 10^−10 M and CTOP (D-Phe-Cys-Tyr-D-Trp-Orn-Thr-Pen-Thr-NH2), MOP antagonist at 3.4 × 10^−7 M. Depending on the assay volume and solvent tolerance, the stock solutions were diluted to [100×], [333×] or [1,000×] in 100% DMEM solvent, then either added directly or further diluted to [10×] or [5×] in H2O or Hank's balanced salt solution (HBSS) before addition to the assay well (final solvent concentration kept constant). The cultures were incubated for 10 min at 37°C followed by impedance measurements using cellular dielectric spectroscopy of CHO cells and cAMP was assayed by homogeneous time resolved fluorescence (HTRF) method using NG-10815 cells, according to CEREP standard assay protocols (https://euroscreenfast.com/assays/opioid-orl1-camp-fast-0360c; https://euroscreenfast.com/assays/opioid-op1-delta-camp-fast-0379c). The results (mean of three experiments) are expressed as a percent of control specific agonist response [(measured TAPS specific response/control specific agonist response) × 100] and as a percent inhibition of control specific agonist response [100 – (measured TAPS specific response/control specific agonist response) × 100] obtained in the presence of the TAPS compounds. […]

T1 sequence (P35372 whole entry): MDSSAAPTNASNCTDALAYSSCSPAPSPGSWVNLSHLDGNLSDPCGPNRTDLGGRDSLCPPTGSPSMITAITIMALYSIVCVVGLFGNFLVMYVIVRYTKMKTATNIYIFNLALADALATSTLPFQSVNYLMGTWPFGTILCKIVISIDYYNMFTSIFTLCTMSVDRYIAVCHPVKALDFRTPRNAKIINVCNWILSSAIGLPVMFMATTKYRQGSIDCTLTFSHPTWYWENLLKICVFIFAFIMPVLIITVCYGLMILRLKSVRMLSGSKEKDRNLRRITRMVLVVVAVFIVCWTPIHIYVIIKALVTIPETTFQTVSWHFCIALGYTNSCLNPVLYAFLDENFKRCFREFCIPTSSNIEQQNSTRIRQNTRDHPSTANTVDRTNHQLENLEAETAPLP

`N=C(N)NCCC[C@@H]1C(=O)N[C@@H](Cc2ccccc2)C(=O)N(CC(N)=O)CCNC(=O)NCCCCCCN1C(=O)[C@@H](N)Cc1ccc(O)cc1` [TAPS c(2-6)]: the “MOP agonist (%)” value is 48 ± 3% and 48^** %.
